“Also recorded” adds a separate entry of the source.
Legend:
EpH4 cells = assay: Protrusions in suspended cells treated with cytoskeletal inhibitors (EpH4); type: cell-based, mouse
Procedure: In FIG. 2A, after 15 minutes of suspension, protrusions in EpH4 and MCF10A cells are quite small (Control, white arrows). […] In FIG. 2B, populations of live, suspended cells were scored blindly for two or more protrusions longer than the cell radius. Each bar represents the mean+S.D. for three experiments in which at least 100 single cells were counted.
EpH4 cells were suspended in either DMEM (Control) or media containing 5 μM Latrunculin-A (LA), 1 μM Colchicine or the combination of both drugs for 30 minutes. Cells were then spun onto glass coverslips and fluorescently stained for α-tubulin (green) and polymerized actin (red). Protrusions that are difficult to see by phase contrast are easily discernible with immunostaining for α-tubulin (white arrows). Protrusions contain little polymerized actin, except at points of concentration, which are often at the end (arrowhead).
EpH4 and B19 cells were suspended over 2% agarose coated plates to prevent attachment in either serum-free DMEM or media containing. Latrunculin-A (5 μM) to enhance protrusions. For co-staining of α-tubulin and actin, suspended cells were then centrifuged onto poly-L-lysine coated coverslips (280 g×5 min), fixed in 3.7% formaldehyde in PBS for 10 min, and permeablized with 0.1% Triton X-100 in PBS. Adhered cells were then stained for 1 hr at room temperature using FITC-conjugated anti-α-tubulin (1:200; Sigma), Alexa-594 phalloidin (1:100; Molecular Probes), and Hoescht 33342 (1:5000; Sigma).
In order to initially characterize the cytoskeletal mechanism underlying these protrusions, suspended cells were treated with inhibitors of actin and tubulin polymerization (FIG. 2). After 15 minutes of suspension, the protrusions in untreated EpH4 or MCF10A cells remain fairly short (FIG. 2, white arrows). These early protrusions can often be difficult to detect with phase-contrast microscopy, due to interfering light refraction from the plasma membrane. […] Protrusions were more easily visible with immunofluorescence than phase contrast microscopy (FIG. 3, white arrows). Although actin filament staining was generally low along the length of the protrusion, dense points of actin were often found at the end of protrusions (FIG. 3, arrowheads).

EpH4-Bcl2 cells = assay: Cell-substratum attachment assay; type: cell-based, mouse
Procedure: In FIG. 6A, EpH4-Bcl2 cells were suspended over agarose and treated with inhibitors as above. Following treatment, cells were plated into 0.3% methylcellulose media over agarose and the rate of cell-cell attachment was followed by Hoescht DNA staining. […] Similar results were found in three independent experiments. In FIG. 6B, EpH4-Bcl2 cells suspended over agarose for one hour in DMEM or DMEM containing LA (5 μM), Colchicine (1 μM), or the combination. Reattachment of these cells to either uncoated tissue culture plates or those pre-coated with laminin was followed by XTT cell viability assay. Values represent mean+S.D. of raw XTT values of three separate experiments.
Equivalent numbers of B19 cells were suspended over 6-well plates coated in 2% agarose in serum-free media containing 5 μM Latrunculin-A (LA; BioMol, Plymouth Meeting, Pa.), 100 μM colchicine (Col; Sigma, St. Louis, Mo.), 5 μg/ml nocodazole (Noc), or 1 μg/ml vinblastine (VinB; Sigma) for a duration of 1 hr at 37° C. Cells were collected by centrifugation (1000 rpm×5 min) and drug containing media was aspirated. Cells were resuspended in EpH4 serum-containing growth media and aliquoted out into 24 wells (8 timepoints×3 replicates) of a 96-well clear bottom black plate. After plating, cells were allowed to attach for duration of 15 min, 45 min, 1.5 hr, 2 hr, 3 hr, 4 hr, 5 hr, and 24 hr at which point the media was aspirated from the replicate wells, washed twice in PBS, and fresh growth media was replaced at each timepoint. After 24 hr, all wells were aspirated and cells were incubated in growth media containing Hoescht 33342 (1:5000) for 30 min at 37° C. to label all attached cells. Fluorescence was measured using a Biotek Synergy HT Multi-Detection Microplate Reader (Winooski, Vt.) at excitation wavelength 360 nm and an emission filter of 460 nm followed by subsequent analysis using the KC4 Data Analysis software. The percentage of cell attachment for each treatment exposure was calculated as the RFU at each timepoint divided by the RFU at 24 h (maximum attachment). The standard deviations of triplicates at each timepoint are shown.
To determine if these microtubule protrusions influence the ability of cells to form attachments, the cells were treated with inhibitors of actin or tubulin polymerization and assessed both cell-cell and cell-substratum attachment (FIG. 6). […] Induction of such nonspecific attachment activity in detached mammary epithelial cells could promote tumor cell dissemination, particularly when apoptotic resistance allows this response to continue for extended periods.

[1] = tested on: detached mammary epithelial cells; assay: Protrusions of detached mammary epithelial cells, general statements; type: cell-based, human and mouse
Procedure: Time-lapse video microscopy of detached mammary epithelial cells detected the extension of long, dynamic protrusions of the plasma membrane, and the present inventors have characterized the cytoskeletal mechanism underlying this novel observation. […] This response may be relatively short-lived, in specific embodiments, since mammary epithelial cells die by apoptosis within about 24 hours in suspension. However, cell lines that resist apoptosis through expression of either Bcl-2 or Bcl-xL will persistently form protrusions. Previous studies by the inventors indicate that such apoptotically-resistant cell lines will not form tumors in mice and lie dormant in distant tissues, in specific embodiments of the invention. […] These microtubule processes can extend more than 3 times the cell diameter, and undergo a rapid probing motion more than once per second. Formation of these microtubule protrusions is necessary for efficient cell-cell and cell-substratum attachment. In particular embodiments of the invention, this inherent microtubule response in detached mammary epithelial cells provides at least some of the invasive characteristics of breast cancer, independent of any tumor-specific genetic alteration, for example.
Breast tumor cells enter the bloodstream long before the development of clinically evident metastasis. However, the early presence of such bloodborne cells predicts poor patient outcome. Nearly 90% of human breast tumors arise as carcinomas from mammary epithelial cells, so it is important to characterize how these cells respond to the detached conditions that they would experience in the bloodstream. In the present invention, mammary epithelial cell lines produce long and dynamic protrusions of the plasma membrane when detached. Although human and mouse mammary epithelial cell lines die by apoptosis within 16 hours of detachment, this protrusive response persists for days in cells overexpressing either Bcl-2 or Bcl-xL, for example. […] Since bloodborne metastasis depends on both cell-cell and cell-matrix attachment, microtubule-based protrusions in detached mammary epithelial cells provide a novel target that could influence the metastatic spread of breast tumors.
Detachment-induced increases in Glu-tubulin could promote plasma membrane protrusions of microtubules by preventing efficient capture at the actin cortex. […] Therefore, our current model is that detachment increases stabilized microtubules enriched in Glu-tubulin, while decreased actin polymerization simply promotes extension of these microtubule protrusions.

SMILES: C/C1=C/C(=O)O[C@@H]2C[C@@H](CC[C@H](C)/C=C\C=C\CC1)O[C@@](O)([C@@H]1CSC(=O)N1)C2 [Latrunculin-A]
- protrusions (EpH4 cells; EpH4, 15 minutes of suspension, Latrunculin-A 5 μM, Colchicine 1 μM, listed as latrunculin-A): significantly enhanced both the number and length of protrusions
- microtubule protrusions by immunofluorescence (α-tubulin) (EpH4 cells; EpH4 suspended 30 minutes, LA 5 μM, listed as LA): increase the number and length of microtubule protrusions; also recorded: strongly enhances the formation of microtubule protrusions
- attachment of cells to tissue culture surfaces (EpH4-Bcl2 cells; EpH4-Bcl2 (B19), 1 hr in suspension with inhibitor, then replated): did not significantly affect attachment
- cell-surface attachment to uncoated or laminin-coated plates (XTT) (EpH4-Bcl2 cells; EpH4-Bcl2 suspended one hour, LA 5 μM, Colchicine 1 μM): does not affect cell-surface attachment
- protrusions [1]: enhanced; also recorded: promotes the extension of microtubule protrusions
